# Data as given in patent US10513511B2, “Aqueous suspension formulation comprising 4-(4-(4-(((3R,5R)-5-((1H-1,2,4-triazol-1-yl)methyl)-5-(2,4-difluoro-phenyl)tetrahydrofuran-3-yl)methoxy)-3-methylphenyl) or a pharmaceutically acceptable salt thereof” (PULMOCIDE LIMITED, priority 2015, dated 2019).
# Like-named read-outs stand apart in the source and are kept apart here.
# What was measured:
# Assay type in all cases: cell-based
# [1] = Cell viability: resazurin assay; settings: human, 1 day incubation, resazurin, n = 3
# Procedure: BEAS2B cells were seeded in 384-well plates (100 μL; 3000/well/; BD Falcon, Catalogue No 353962) in RPMI-LHC8 (RPMI-1640 and LHC8 media combined in equal proportions) one day before experimentation. For cell-free control wells, RPMI-LHC8 (100 μL) was added. Test compounds (0.5 μL of a DMSO solution) were added to give a final DMSO concentration of 0.5% using an Integra VIAFLO 96 (Integra, Zizers, Switzerland). BEAS2B cells were incubated with each test compound for 1 day (37° C./5% CO2 in RPMI-LHC8). After addition of resazurin stock solution (5 μL, 0.04%) the plates were incubated for a further 4 hr (37° C./5% CO2). The fluorescence of each well at 545 nm (excitation) and 590 nm (emission) was determined using a multi-scanner (Clariostar: BMG Labtech). The percentage loss of cell viability was calculated for each well relative to vehicle (0.5% DMSO) treatment. Where appropriate, a CC50 value was calculated from the concentration-response curve generated from the concentration-response curve for each test compound.
# [2] = tested on: Aspergillus fumigatus TR46 (TR46/Y121F/T289A); experiment: Planktonic fungus growth: broth microdilution assay (TR46); settings: Aspergillus fumigatus, read-out: MIC75 Values against Aspergillus fumigatus isolate TR46
# Procedure: This assay was conducted using a modified method published by EUCAST (Rodriguez-Tudela, et al., 2008). Spores of Aspergillus fumigatus (NCPF2010, NCPF7010 [methionine 220 mutation], NCPF7099 [Glycine G54 mutation]) from Public Health England, Wiltshire; TR34/L98H mutants from St Louis Hospital, Paris, France; TR46/Y121F/T289A mutants from University of Delhi, Delhi, India) were cultured in Sabouraud dextrose agar for 3 days. A stock spore suspension was prepared from a Sabouraud dextrose agar culture by washing with PBS-tween (10 mL; phosphate buffered saline containing 0.05% Tween-20, 100 U/mL penicillin and 100 U/mL streptomycin). The spore count was assessed using a Neubauer haemocytometer and then adjusted to 10^6 spores/mL with PBS. A working suspension of spores (2×10^5 spores/mL) was prepared in filter sterilised, BSA MOPS RPMI-1640 (50 mL; RPMI-1640 containing 2 mM L-glutamine, 0.5% BSA, 2% glucose, 0.165 M MOPS, buffered to pH 7 with NaOH).
# For the assay, BSA MOPS RPMI-1640 (50 μL/well) was added throughout the 384-well plate (Catalogue number 353962, BD Falcon, Oxford, UK) first. Test compounds (0.5 μL DMSO solution) were then added in quadruplicate using an Integra VIAFLO 96 (Integra, Zizers, Switzerland), and mixed well using a plate mixer. Subsequently 50 μL of the working spore suspension prepared above was added to all wells except non-spore control wells. For non-spore control wells, BSA MOPS-RPMI solution (50 μL/well) was added instead. The plate was covered with a plastic lid, and incubated (35° C. with ambient air) for 48 hr. The OD of each well at 530 nm was determined using a multi-scanner (Clariostar: BMG, Buckinghamshire, UK). The percentage inhibition for each well was calculated and the MIC50, MIC75 and MIC90 values were calculated from the concentration-response curve generated for each test compound.
# [3] = tested on: Aspergillus fumigatus (NCPF2010); experiment: Aspergillus fumigatus infection of BEAS2B bronchial epithelial cells (galactomannan); settings: NCPF2010, galactomannan in supernatant, 24 hr, n = 1-3, read-out: Infection of BEAS2B cells MIC50
# Procedure: BEAS2B cells were seeded in 96-well plates (100 μL; 3×10^4 cells/well; Catalogue No 3596, Sigma Aldrich, Dorset, UK) in 10% FBS RPMI-1640 and were then incubated (37° C., 5% CO2) for one day before experimentation. Test compounds (0.5 μL DMSO solution) or vehicle (DMSO) were added to each well to give a final DMSO concentration of 0.5%. BEAS2B cells were incubated with test compounds for 1 hr (35° C., 5% CO2) before infection with Aspergillus fumigatus (20 uL; Public Health England) conidia suspension (0.5×10^5/mL in 10% FBS RPMI-1640). The plate was incubated for 24 hr (35° C., 5% CO2). Supernatant (50 uL) was collected and transferred to a PCR plate (Catalogue No L1402-9700, Starlab, Milton Keynes, UK), which was frozen (−20° C.) until use. After thawing, supernatant (5 μL) was diluted 1:20 by adding R7-PBS solution (95 μL; 1:4 R7 to PBS; Bio-Rad Laboratories, Redmond, Wash., USA). Galactomannan levels in these samples (50 μL) were measured using Platelia GM-EIA kits (Bio-Rad Laboratories, Redmond, Wash., USA). The percentage inhibition for each well was calculated and the IC50 value was calculated from the concentration-response curve generated for each test compound.
Compound,CC50 at 1 day ([1]; BEAS2B cells),MIC [2],MIC50 [3],CC50 at 1 day ([1]; read-out: BEAS2B Cell Viability CC50)
"Cc1cc(N2CCN(c3ccc(C(=O)N[C@H]4CCCC[C@@H]4O)cc3)CC2)ccc1OC[C@@H]1CO[C@@](Cn2cncn2)(c2ccc(F)cc2F)C1 [Compound (Ia), 4-(4-(4-(((3R,5R)-5-((1H-1,2,4-triazol-1-yl)methyl)-5-(2,4-difluorophenyl)tetrahydrofuran-3-yl)methoxy)-3-methylphenyl)piperazin-1-yl)-N-((1S,2S)-2-hydroxycyclohexyl) benzamide]",> 14.6 µM,0.093 µM,0.00635 µM,
"CC[C@@H]([C@H](C)O)n1ncn(-c2ccc(N3CCN(c4ccc(OC[C@@H]5CO[C@@](Cn6cncn6)(c6ccc(F)cc6F)C5)cc4)CC3)cc2)c1=O [Posaconazole, reference compound]",> 14.3 µM,0.414 µM,0.0116 µM,
C[C@@H](c1ncncc1F)[C@](O)(Cn1cncn1)c1ccc(F)cc1F [Voriconazole],,> 2.86 µM,0.154 µM,> 28.6 µM
